The numbers were not newly measured in patent US7638299B2, “Biosynthetic polypeptides utilizing non-naturally encoded amino acids” (Ambrx, Inc., priority 2004, dated 2009), which cites them from elsewhere.

Like-named read-outs stand apart in the source and are kept apart here. No end group written: not given here.

For data set [1] the following is noted: administered subcutaneously.
The conditions of data set [2]: U.S. Pat. No. 5,118,666.
The conditions of data set [3]: stored at 4° C. (Mojsov).
The subject of data set [4] is NIDDM patients. To be noted: 4 ng/kg/min intravenously, continuously for one week.
For data set [5], the system named is food intake in rats.
For data set [6] the following is noted: humans.
The conditions of data set [7]: Kreymann et al., 1987.
For data set [8], the system named is lean and obese subjects.
Data set [9] has as its system HIV-1.
For data set [10] the following is noted: in vitro studies and in animals.
The target in data set [11] is T1, GLP-1 receptor (Rattus norvegicus, UniProt P32301).
T1 construct: host or cells: live rats (endogenous receptor)
T1 sequence (P32301 22-463): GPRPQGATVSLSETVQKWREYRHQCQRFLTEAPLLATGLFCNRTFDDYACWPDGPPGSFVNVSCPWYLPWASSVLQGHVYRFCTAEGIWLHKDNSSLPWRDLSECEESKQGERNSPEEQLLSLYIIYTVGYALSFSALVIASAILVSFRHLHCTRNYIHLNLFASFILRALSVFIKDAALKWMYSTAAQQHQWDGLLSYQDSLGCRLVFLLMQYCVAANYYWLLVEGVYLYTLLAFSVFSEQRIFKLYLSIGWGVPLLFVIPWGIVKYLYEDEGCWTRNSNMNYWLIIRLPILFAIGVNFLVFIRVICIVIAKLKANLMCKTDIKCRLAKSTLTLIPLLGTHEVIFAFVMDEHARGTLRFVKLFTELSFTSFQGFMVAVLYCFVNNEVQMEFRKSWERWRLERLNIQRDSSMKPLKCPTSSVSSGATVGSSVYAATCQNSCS
The settings on record: rats.

Setting [12] is: intraventricular administration.

With “GLP-1(7-36) amide: SEQ ID NO: 1; His-Ala-Glu-Gly-...-Lys-Gly-Arg-X wherein X is NH2 (HAEGTFTSDVSSYLEGQAAKEFIAWLVKGR-NH2; listed as Homo sapiens)”, in data set [1], the time action entry is on record as “about 50 minutes”.
As for “GLP-1(7-37): SEQ ID NO: 2; His-Ala-Glu-Gly-...-Lys-Gly-Arg-X wherein X is Gly”, in data set [2], the biological half-life is 3 to 5 minutes and the serum half-life was 3 to 5 min. In addition, the “appearance of by-products on storage” value in data set [3] is listed as “have been found as early as eleven months after sample preparation”.
As to “GLP-1: product of the proglucagon gene, gut incretin hormone”, in data set [4], the glycaemic control entry is recorded as “dramatically improve glycaemic control” and the side effects result is listed as “without significant side effects”. Besides, the food intake entry in [5] (acute, peripheral administration) is “does not inhibit food intake acutely”. Also, the food intake entry in [5] (setting [12]) is recorded as “profoundly inhibits food intake”. For the same substance, the plasma half-life in data set [6] is 2 min. Moreover, the “half-life of circulating GLP-1” value in data set [7] is “about 4 minutes”.
In the case of “N-terminally extended GLP-1 (PG 72-107)amide: N-terminally extended GLP-1, proglucagon 72-107 amide (QDFVQWLMNTKRNRNNIAKRHDEFERHAEGTFTSDV-NH2; UniProt P01275 72-107, looked up, fragment)”, in data set [5] (setting [12]), the food intake entry was “inactive”.
For “PYY: thirty six amino acid long peptide secreted by endocrine cells of the distal gastrointestinal tract”, the “appetite and food intake” value in data set [8] (administered intravenously, lean and obese subjects) is “suppresses appetite and food intake”. Moreover, the oral activity result in [8] (oral, low absorption and rapid degradation in the gastrointestinal tract) is recorded as “negligible”.
For the substance enfuvirtide, in data set [9], the “inhibition of HIV-1 mediated CD-4+ cell-cell fusion (syncytial formation) and infection of CD-4+ cells by cell-free virus” value is “potent inhibitor”. The toxicity entry in data set [10] is recorded as “non-toxic”.
With exendin 9-39, the “antagonism of the GLP-1 effect on food intake” value in data set [5] (appropriate doses of the GLP-1 antagonist) was “abolish the effects of GLP-1”. For the same substance, in data set [11], the “incretin effect elicited by oral glucose” value is “dramatically reduces the incretin effect”.
